US20110312894A1 (priority 2009, published 2011)
Read-outs that look alike come from different tables or passages of the source.

Assays:
[1] = target: T1, heteromeric α7β2-nAChRs on MS/DB cholinergic neurons (Rattus norvegicus, UniProt P12390+Q05941); type: cell-based; conditions: for form-dependent suppression of choline-induced responses: 1 nM of the peptide form
T1 construct: functional nAChRs naturally expressed on rat MS/DB cholinergic neurons; endogenous in cells; host or cells: acutely dissociated MS/DB neurons of 2-4 week-old Wistar rats
T1 sequence (Q05941 23-502): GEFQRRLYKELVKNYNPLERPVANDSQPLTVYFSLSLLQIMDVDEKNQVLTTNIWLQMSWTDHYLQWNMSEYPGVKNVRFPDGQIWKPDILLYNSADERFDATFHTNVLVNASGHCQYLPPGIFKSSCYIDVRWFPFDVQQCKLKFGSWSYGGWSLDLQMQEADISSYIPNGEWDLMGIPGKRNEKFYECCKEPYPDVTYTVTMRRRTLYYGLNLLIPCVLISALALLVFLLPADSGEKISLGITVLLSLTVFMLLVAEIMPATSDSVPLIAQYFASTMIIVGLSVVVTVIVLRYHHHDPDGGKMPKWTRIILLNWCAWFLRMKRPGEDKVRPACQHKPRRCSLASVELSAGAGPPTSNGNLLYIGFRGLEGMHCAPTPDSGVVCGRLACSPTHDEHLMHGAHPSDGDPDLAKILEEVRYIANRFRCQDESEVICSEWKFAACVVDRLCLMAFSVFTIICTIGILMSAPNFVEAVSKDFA
T1 sequence (P12390 25-500): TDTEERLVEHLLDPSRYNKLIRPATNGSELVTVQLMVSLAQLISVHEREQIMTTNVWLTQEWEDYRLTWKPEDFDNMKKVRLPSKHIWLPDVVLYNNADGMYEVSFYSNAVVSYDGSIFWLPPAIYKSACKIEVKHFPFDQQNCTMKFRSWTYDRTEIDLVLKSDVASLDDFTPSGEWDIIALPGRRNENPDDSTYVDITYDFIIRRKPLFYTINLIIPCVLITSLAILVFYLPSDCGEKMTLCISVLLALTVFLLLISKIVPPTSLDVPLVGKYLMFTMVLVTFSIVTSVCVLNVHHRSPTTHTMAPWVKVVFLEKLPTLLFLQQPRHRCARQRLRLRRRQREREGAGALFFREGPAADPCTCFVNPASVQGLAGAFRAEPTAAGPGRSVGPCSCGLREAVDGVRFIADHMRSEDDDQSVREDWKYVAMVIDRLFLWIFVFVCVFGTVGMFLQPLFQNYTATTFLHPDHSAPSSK
Description: (§1) Briefly, each postnatal 2-4 week-old Wistar rat or mouse (wild-type C57/B16 or nAChR β2 knockout mice on a C57/B16 background kindly provided by Dr. Marina Picciotto, Yale University) was anesthetized using isoflurane, and the brain was rapidly removed. Several 400-μm coronal slices, which contained the medial septum/diagonal band (MS/DB) or the ventral tegmental area (VTA), were cut using a vibratome (Vibratorne 1000 plus; Jed Pella Inc., Redding, Calif.) in cold (2-4° C.) artificial cerebrospinal fluid (ACSF) and continuously bubbled with carbogen (95% O2-5% CO2). The slices were then incubated in a pre-incubation chamber (Warner Ins., Holliston, Mass.) and allowed to recover for at least 1 h at room temperature ([…]) in oxygenated ACSF. Thereafter, the slices were treated with pronase (1 mg/6 mL) at 31° C. for 30 min and subsequently treated with the same concentration of thermolysin for another 30 min. The MS/DB or VTA region was micropunched out from the slices using a well-polished needle. […] In particular, perforated-patch recording was used to maintain the intracellular ATP concentration at a physiological level. To prepare for perforated-patch whole-cell recording, glass microelectrodes (GC-1.5; Narishige, East Meadow, N.Y.) were fashioned on a two-stage vertical pipette puller (P-830; Narishige, East Meadow, N.Y.), and the resistance of the electrode was 3 to 5 MΩ when filled with the internal solution. A tight seal (>2 GΩ) was formed between the electrode tip and the cell surface, which was followed by a transition from on-cell to whole-cell recording mode due to the partitioning of amphotericin B into the membrane underlying the patch. After whole-cell formation, an access resistance lower than 60 MΩ was acceptable during perforated-patch recordings in current-clamp mode, and an access resistance lower than 30 MΩ was acceptable during voltage-clamp recordings. The series resistance was not compensated in the experiments using dissociated neurons. Under current-clamp configuration, membrane potentials were measured using a patch-clamp amplifier (200B; Axon Instruments, Foster City, Calif.). […] All experiments were performed at room temperature (22±1° C.).

[2] = target: T2, homomeric α7-nAChRs on VTA DAergic neurons (Rattus norvegicus, UniProt Q05941); type: cell-based
T2 construct: native nAChR responses in rat MS/DB or VTA neurons; endogenous in cells; host or cells: acutely dissociated VTA dopaminergic neurons of Wistar rats
T2 sequence (Q05941 23-502): as the sequence (Q05941 23-502) above
Description: as §1

GABAA receptors = assay: GABA-induced whole-cell currents in rat MS/DB cholinergic neurons; type: cell-based; conditions: 1 nM peptide; 0.1 mM GABA
Description: (§2) Briefly, each postnatal 2-4 week-old Wistar rat or mouse (wild-type C57/B16 or nAChR β2 knockout mice on a C57/B16 background kindly provided by Dr. Marina Picciotto, Yale University) was anesthetized using isoflurane, and the brain was rapidly removed. Several 400-μm coronal slices, which contained the medial septum/diagonal band (MS/DB) or the ventral tegmental area (VTA), were cut using a vibratome (Vibratorne 1000 plus; Jed Pella Inc., Redding, Calif.) in cold (2-4° C.) artificial cerebrospinal fluid (ACSF) and continuously bubbled with carbogen (95% O2-5% CO2). The slices were then incubated in a pre-incubation chamber (Warner Ins., Holliston, Mass.) and allowed to recover for at least 1 h at room temperature ([…]) in oxygenated ACSF. Thereafter, the slices were treated with pronase (1 mg/6 mL) at 31° C. for 30 min and subsequently treated with the same concentration of thermolysin for another 30 min. The MS/DB or VTA region was micropunched out from the slices using a well-polished needle. […] In particular, perforated-patch recording was used to maintain the intracellular ATP concentration at a physiological level. […] Under current-clamp configuration, membrane potentials were measured using a patch-clamp amplifier (200B; Axon Instruments, Foster City, Calif.). […]

[3] = target: T3, α7β2-nAChRs on MS/DB neurons from wild-type mice (Mus musculus, UniProt P49582+Q9ERK7); assay: Whole-cell current recordings, MS/DB neurons from wild-type mice; type: cell-based; conditions: 1 nM peptide
T3 construct: heteromeric α7β2-nAChRs exist in rodent basal forebrain cholinergic neurons; endogenous in cells; host or cells: acutely dissociated MS/DB neurons of wild-type C57/Bl6 mice
T3 sequence (P49582 23-502): as the sequence (Q05941 23-502) above, with A402T counted along it
T3 sequence (Q9ERK7 26-501): as the sequence (P12390 25-500) above, with A350T, V371M, R379Q, T383A, P387L, V391M, V449I, P468S counted along it
Description: (§3) Briefly, each postnatal 2-4 week-old Wistar rat or mouse (wild-type C57/B16 or nAChR β2 knockout mice on a C57/B16 background kindly provided by Dr. Marina Picciotto, Yale University) was anesthetized using isoflurane, and the brain was rapidly removed. Several 400-μm coronal slices, which contained the medial septum/diagonal band (MS/DB) or the ventral tegmental area (VTA), were cut using a vibratome (Vibratorne 1000 plus; Jed Pella Inc., Redding, Calif.) in cold (2-4° C.) artificial cerebrospinal fluid (ACSF) and continuously bubbled with carbogen (95% O2-5% CO2). The slices were then incubated in a pre-incubation chamber (Warner Ins., Holliston, Mass.) and allowed to recover for at least 1 h at room temperature (22±PC) in oxygenated ACSF. Thereafter, the slices were treated with pronase (1 mg/6 mL) at 31° C. for 30 min and subsequently treated with the same concentration of thermolysin for another 30 min. The MS/DB or VTA region was micropunched out from the slices using a well-polished needle. […] In particular, perforated-patch recording was used to maintain the intracellular ATP concentration at a physiological level. […] Under current-clamp configuration, membrane potentials were measured using a patch-clamp amplifier (200B; Axon Instruments, Foster City, Calif.). […]

[4] = system: ionotropic glutamate receptors; assay: Glutamate-induced whole-cell currents in rat MS/DB cholinergic neurons; type: cell-based; conditions: 1 nM peptide; 1 mM glutamate
Description: as §2

[5] = target: T4, α7-containing-nAChRs on MS/DB neurons from nAChR β2 knockout mice (Mus musculus, UniProt P49582); type: cell-based
T4 construct: endogenous in cells; host or cells: acutely dissociated MS/DB neurons of nAChR β2 subunit knockout mice (C57/Bl6 background)
T4 sequence (P49582 23-502): as the sequence (Q05941 23-502) above, with A402T counted along it
Description: as §3

[6] = target: T5, heterologously expressed heteromeric α7β2-nAChRs (Rattus norvegicus, UniProt P12390+Q05941); type: cell-based; conditions: oocytes; 10 mM choline; compared with homomeric α7-nAChR
T5 construct: expressed in transfected cells; host or cells: Xenopus laevis oocytes injected with cRNA (vector pGEMHE)
T5 sequence (Q05941 23-502): as the sequence (Q05941 23-502) above
T5 sequence (P12390 25-500): as the sequence (P12390 25-500) above
Description: The frogs were then allowed to recover from surgery before being returned to the incubation tank. The lobes were cut into small pieces and digested with 0.08 Wunsch U/mL liberase blendzyme 3 (Roche Applied Science, Indianapolis, Ind.) with constant stirring at room temperature for 1.5-2 h. The dispersed oocytes were thoroughly rinsed with incubation solution. Stage VI oocytes were selected and incubated at 16° C. before injection. Micropipettes used for injection were pulled from borosilicate glass (Drummond Scientific, Broomall, Pa.). cRNAs encoding α7 or β2 at proper dilution were injected into oocytes separately or in different ratios using a Nanoject microinjection system (Drummond Scientific, Broomall, Pa.) at a total volume of ˜20-60 nL.
The chamber was grounded through an agarose bridge. The oocytes were voltage-clamped at −70 mV to measure ACh (or choline)-induced currents using GeneClamp 500B (Axon Instruments, Foster City, Calif.).

MS/DB neurons = assay: Current-clamp recording of spontaneous action potential firing in dissociated MS/DB neurons; type: cell-based, rat; conditions: 1 μM
Description: as §3

monomeric Aβ1-42: Aβ1-42 reconstituted in DMSO, predominant monomeric form
form-dependent suppression of choline-induced responses ([1]; MS/DB neurons): failed to suppress

CNCC/C=C/c1cccnc1 [RJR-2403]
agonist-evoked current compared with ACh-induced response [2]: mimicked | agonist-evoked inward current compared with ACh-induced response [1]: insensitive

fibrillar Aβ: Aβ1-42 stock incubated at 37° C. for 48 h at pH 6.0, predominantly fibrillar form
form-dependent suppression of choline-induced responses ([1]; MS/DB neurons): weaker inhibitory effect

Aβ1-42: amyloid beta peptides at positions 1-42 of the amyloid precursor protein, purchased from rPeptide
inhibition of GABA-induced currents (GABAA receptors): insensitive | effect on choline-induced currents [3]: did suppress | inhibition of glutamate-induced currents [4]: insensitive | effect on choline-induced currents ([2]; 1 nM peptide, VTA DAergic neurons): not sensitive | effect on choline-induced currents [1]: progressively inhibited with time | effect on choline-induced currents ([1]; 0.1 nM peptide, MS/DB neurons): negligible | effect on ACh-induced current ([1]; 1 nM peptide, 1 mM ACh, MS/DB neurons): evident | reversibility of inhibition of choline responses ([1]; 1 nM, recovery after 6 min of peptide washout): reversibly | effect on choline-induced currents ([5]; 1 nM peptide, MS/DB neurons from β2−/− mice): failed to suppress

CO[C@H]1CC=C2CCN3CCC4=C(CC(=O)OC4)[C@]23C1 [DHβE, dihydro-β-erythroidine]
sensitivity to functional blockade, α7β2- vs α7-nAChR [6]: more sensitive | Hill coefficient, inhibition of choline-induced currents ([2]; 10 mM choline, VTA neurons): 0.3 | IC50 ([2]; 10 mM choline, VTA neurons, n=7, read-out: IC50, inhibition of choline-induced currents): > 100000 nM | Hill coefficient, inhibition of choline-induced currents ([1]; 10 mM choline, MS/DB neurons, n=8): 0.9 | IC50 ([1]; 10 mM choline, MS/DB neurons, n=8, read-out: IC50, inhibition of choline-induced currents): 170 nM | potency difference as inhibitor of choline-induced current, MS/DB vs VTA neurons ([1]; MS/DB neurons compared with VTA neurons): ~500 fold | sensitivity of choline-induced currents to antagonist ([5]; MS/DB neurons from β2 knockouts compared with wild-type): lower sensitivity

C[C@@H]1O[C@H](C[N+](C)(C)C)C[C@H]1O [muscarine]
effect on spontaneous action potential firing (MS/DB neurons): insensitive

oligomeric Aβ1-42: Aβ1-42 reconstituted in distilled water, predominantly oligomeric form
form-dependent suppression of choline-induced responses ([1]; MS/DB neurons): greatest suppression
